Read-outs that look alike come from different tables or passages of the source. Where a SMILES comes first, the peptide text is derived from it. [ ]: non-standard residue; d: D form.
Key:
[1] = Proteolytic stability in simulated intestinal fluid (SIF); type: in vitro ADME
Description: (§1) Both compounds have already been extensively studied with respect to their in vivo pharmacokinetic profiles. Here, we performed some additional test to investigate the proteolytic stability of the compounds in simulated gastric (SGF) and intestinal fluid (SIF) and human plasma and human liver microsomes. The experiments were performed as described previously. According to the guidelines of the European Pharmacopoeia 7.0, SGF and SIF were prepared. Plasma was purchased from Biotrend with K3-EDTA as an anticoagulant (Biotrend, Köln, Germany). Human liver microsomes were pooled from different donors and purchased from Sekisui XenoTech (Kansas City, KS, USA). In order to determine whether the compounds RD2D3 and cRD2D3 are stable or would be metabolized, 150 µM of each compound was incubated in triplicate for defined time points slightly shaking at 37 °C in the media described above (SGF and SIF: 4 and 8 h, plasma: 8, 24 and 48 h and microsomes: 8 and 24 h). Incubation was stopped by precipitating the proteins. For this, 3% trichloroacetic acid (w/v) was added to the respective sample under vortexing followed by a centrifugation step (14,000× g at 4 °C for 5 min). For analysis, supernatants containing the compounds were collected. The precipitated media without compound was used as a control and as reference for the quantification served each medium with compound where the reaction was stopped immediately by precipitating the proteins. All samples were analyzed by RP-HPLC as previously described.

Aβ(1-42) = molecular target: T1, Aβ(1-42) (Homo sapiens, UniProt P05067); assay: SPR, D-peptide immobilized, Aβ(1-42) monomers as analyte; type: binding; conditions: D-peptide immobilized on series S CM-5 chip, Aβ(1-42) monomers analyte 0.0045-10 µM, 10 mM HEPES + 50 mM NaCl pH 7.4, 25 °C, steady-state Langmuir 1:1 fit (Fig. 1g), read-out: KD Aβ(1-42), D-peptide as ligand
T1 construct: Synthetic Aβ(1-42) and (Gln^22, Asn^23)-Amyloid β-Protein (1-40) (D/I Aβ) with >95% purity were purchased; purchased Bachem (Bubendorf, Switzerland); host or cells: chemical synthesis
T1 sequence (P05067 672-713): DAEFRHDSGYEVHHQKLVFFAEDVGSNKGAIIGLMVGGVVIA
Description: The dissociation constant (KD) of RD2D3 and cRD2D3 binding to Aβ(1-42) and D/I Aβ was determined by SPR spectroscopy using a Biacore T200 instrument (Biacore, GE Healthcare, Uppsala, Sweden). Aβ(1-42) or D/I Aβ was used as the ligand, while RD2D3 and cRD2D3 were used as the analyte or vice versa.
By using the compounds (RD2D3 and cRD2D3) as ligands, they were immobilized on two separate channels on a series S CM-5 sensor chip (Cytiva, GE Healthcare, Uppsala, Sweden) by amine coupling. Both flow cells on each channel were activated with a mixture of 50 mM N-hydroxysuccinimide (NHS) and 16.1 mM N-ethyl-N’-(dimethylaminopropyl)carbodiimide (EDC) (XanTec, Düsseldorf, Germany) for 7 min. The peptides were diluted to 50 µg/mL in 10 mM maleic acid pH 6 (AppliChem, Darmstadt, Germany) and injected over flow cell two of each channel to a final signal between 600 and 900 RU. After the peptides were immobilized, the ligand and reference flow cells of each channel were quenched by injecting 1 M ethanolamine pH 8.5 (XanTec, Düsseldorf, Germany) for 7 min. […] Aβ(1-42) or D/I Aβ were diluted in the running buffer to the following concentrations: 10 µM, 3.3 µM, 1.1 µM, 0.37 µM, 0.12 µM, […], 0.014 µM and 0.0045 µM. All samples were injected over the flow cells for 180 s, followed by a dissociation step of 600 s with running buffer. […]

[2] = Proteolytic stability in simulated gastric fluid (SGF); type: in vitro ADME
Description: as §1

[3] = Proteolytic stability in human liver microsomes; type: in vitro ADME
Description: as §1

[4] = cited from earlier work
Text: Our society is aging and, with it, the number of diseases of old age, especially dementias, are increasing. Alzheimer’s disease (AD) is a devastating neurodegenerative disorder and the most common form of dementia worldwide. Its clinical symptoms are considered to be disturbances of memory, language, spatial and temporal orientation and cognitive decline. The pathological hallmarks of the disease are characterized by neurodegeneration, intracellular depositions of neurofibrillary tangles and extracellular accumulations of amyloid-β (Aβ) plaques.

[5] = Body weight in i.p. treatment study; type: in vivo; conditions: Tg-SwDI mice, mean ± SEM; for Body weight before treatment: 11 months old, before 28 d i.p. osmotic minipump 8 mg/kg daily; for Body weight after treatment: after 28 d i.p. osmotic minipump 8 mg/kg daily
Description: Eleven months old Tg-SwDI were treated for 28 d i.p. by use of an osmotic minipump (Alzet osmotic pumps, Modell 1004, Charles River, Wilmington, MS, USA) with a daily dosage of 8 mg/kg peptide (RD2D3 (n = 14) or cRD2D3 (n = 12)) in PBS (pH 7.4) or vehicle (Placebo (n = 13), PBS, pH 7.4). The minipumps and the i.p. application route have been used to achieve continuous application of the study drug. After surgery, mice were monitored daily the following three days and twice each week until the end of the treatment. A loss of body weight and severe conspicuities were defined as exclusion criteria. No mouse was affected by these exclusion criteria. During the last one and a half weeks of treatment, different behavioral tests (nesting behavior, marble burying, open field test and MWM) were conducted with all mice.

[6] = Proteolytic stability in human plasma; type: in vitro ADME
Description: as §1

For `CC(C)C[C@H]1NC(=O)[C@@H](CCCNC(=N)N)NC(=O)[C@@H]([C@H](C)O)NC(=O)[C@@H](CCCNC(=N)N)NC(=O)[C@H]2CCCN2C(=O)[C@@H](CCCNC(=N)N)NC(=O)[C@@H](CCCNC(=N)N)NC(=O)[C@@H](CCCNC(=N)N)NC(=O)[C@@H](CCCNC(=N)N)NC(=O)[C@@H](CCCNC(=N)N)NC(=O)[C@@H](CCCNC(=N)N)NC(=O)[C@@H](CC(N)=O)NC(=O)[C@@H](Cc2c[nH]cn2)NC(=O)[C@@H]([C@H](C)O)NC(=O)[C@@H](Cc2c[nH]cn2)NC(=O)[C@@H](CC(C)C)NC(=O)[C@@H]([C@H](C)O)NC(=O)[C@H]2CCCN2C(=O)[C@@H](CCCNC(=N)N)NC(=O)[C@@H](CC(N)=O)NC(=O)[C@@H](CCCNC(=N)N)NC(=O)[C@@H](Cc2c[nH]cn2)NC(=O)[C@@H]([C@H](C)O)NC(=O)[C@@H](Cc2c[nH]cn2)NC1=O` [cRD2D3] (cyclo([dH][dN][dR][dR][dR][dR][dR][dR][dP][dR][dT][dR][dL][dH][dT][dH][dR][dN][dR][dP][dT][dL][dH][dT])), the remaining at 4 h, 150 µM ([1]; simulated intestinal fluid (SIF), simulated intestinal fluid (Eur. Pharmacopoeia 7.0), 150 µM, 37 °C, 4 h, TCA precipitation, RP-HPLC, referenced to immediately stopped sample, mean of three independent experiments, read-out: Stability in SIF, 4 h) was 96%, the remaining at 8 h, 150 µM ([1]; simulated intestinal fluid (SIF), simulated intestinal fluid (Eur. Pharmacopoeia 7.0), 150 µM, 37 °C, 8 h, TCA precipitation, RP-HPLC, referenced to immediately stopped sample, mean of three independent experiments, read-out: Stability in SIF, 8 h) was 87.2% and the Kd (Aβ(1-42)) was 5.63 ± 2.5 µM. For the same compound, the remaining at 4 h, 150 µM ([2]; simulated gastric fluid (SGF), simulated gastric fluid (Eur. Pharmacopoeia 7.0), 150 µM, 37 °C, 4 h, TCA precipitation, RP-HPLC, referenced to immediately stopped sample, mean of three independent experiments, read-out: Stability in SGF, 4 h) was 99.5%, the remaining at 8 h, 150 µM ([2]; simulated gastric fluid (SGF), simulated gastric fluid (Eur. Pharmacopoeia 7.0), 150 µM, 37 °C, 8 h, TCA precipitation, RP-HPLC, referenced to immediately stopped sample, mean of three independent experiments, read-out: Stability in SGF, 8 h) was 99.7% and the remaining at 8 h, 150 µM ([3]; pooled human liver microsomes, 150 µM, 37 °C, 8 h, TCA precipitation, RP-HPLC, mean of three independent experiments, read-out: Stability in human liver microsomes, 8 h) was 89.2%. The remaining at 24 h, 150 µM ([3]; pooled human liver microsomes, 150 µM, 37 °C, 24 h, TCA precipitation, RP-HPLC, mean of three independent experiments, read-out: Stability in human liver microsomes, 24 h) was 73.6%, the “Brain concentrations relative to RD2D3” value ([4]; C57BL/6 mice, i.v. and i.p. administration) was “four to five times higher” and the “Terminal half-life (in plasma)” value ([4]; C57Bl/6 wild type mice, after i.v. and i.p. administration, ref 17 (b3)) was 58 h. For the same compound, the Oral bioavailability [4] was “high oral bioavailability”, the “Body weight before treatment” value [5] was 35.1 ± 1.4 g and the “Body weight after treatment” value [5] was 33.2 ± 1.0 g. For the same compound, the remaining at 8 h, 150 µM ([6]; human plasma (K3-EDTA), 150 µM, 37 °C, 8 h, TCA precipitation, RP-HPLC, mean of three independent experiments, read-out: Stability in human plasma, 8 h) was 91.8%, the remaining at 24 h, 150 µM ([6]; human plasma (K3-EDTA), 150 µM, 37 °C, 24 h, TCA precipitation, RP-HPLC, mean of three independent experiments, read-out: Stability in human plasma, 24 h) was 93.7% and the remaining at 48 h, 150 µM ([6]; human plasma (K3-EDTA), 150 µM, 37 °C, 48 h, TCA precipitation, RP-HPLC, mean of three independent experiments, read-out: Stability in human plasma, 48 h) was 92.4%.
With `CC(C)C[C@@H](NC(=O)[C@@H](CCCNC(=N)N)NC(=O)[C@H](NC(=O)[C@@H](CCCNC(=N)N)NC(=O)[C@H]1CCCN1C(=O)[C@@H](CCCNC(=N)N)NC(=O)[C@@H](CCCNC(=N)N)NC(=O)[C@@H](CCCNC(=N)N)NC(=O)[C@@H](CCCNC(=N)N)NC(=O)[C@@H](CCCNC(=N)N)NC(=O)[C@@H](CCCNC(=N)N)NC(=O)[C@@H](CC(N)=O)NC(=O)[C@@H](Cc1c[nH]cn1)NC(=O)[C@H](NC(=O)[C@@H](Cc1c[nH]cn1)NC(=O)[C@@H](CC(C)C)NC(=O)[C@H](NC(=O)[C@H]1CCCN1)[C@H](C)O)[C@H](C)O)[C@H](C)O)C(=O)N[C@H](Cc1c[nH]cn1)C(=O)N[C@@H](C(=O)N[C@H](Cc1c[nH]cn1)C(=O)N[C@H](CCCNC(=N)N)C(=O)N[C@H](CC(N)=O)C(=O)N[C@H](CCCNC(=N)N)C(N)=O)[C@H](C)O` [RD2D3] (H-[dP][dT][dL][dH][dT][dH][dN][dR][dR][dR][dR][dR][dR][dP][dR][dT][dR][dL][dH][dT][dH][dR][dN][dR]-NH2) the remaining at 4 h, 150 µM ([1]; simulated intestinal fluid) was 100%, the remaining at 8 h, 150 µM ([1]; simulated intestinal fluid) was 93.5% and the Kd (Aβ(1-42)) was 18.4 ± 6.5 µM. It also gave a remaining at 4 h, 150 µM ([2]; simulated gastric fluid) of 100%, a remaining at 8 h, 150 µM ([2]; simulated gastric fluid) of 100% and a remaining at 8 h, 150 µM ([3]; human, microsomes) of 81.9%. The remaining at 24 h, 150 µM ([3]; human, microsomes) was 78.2%, the “Terminal half-life (in plasma)” value ([4]; mouse, in vivo) was 2.3 h and the “Body weight before treatment” value [5] was 33.2 ± 2.6 g. The “Body weight after treatment” value [5] was 34.3 ± 0.6 g, the remaining at 8 h, 150 µM ([6]; human, plasma) was 84.7% and the remaining at 24 h, 150 µM ([6]; human, plasma) was 91.9%. It also gave a remaining at 48 h, 150 µM ([6]; human, plasma) of 93.7%.
